Test results: patent publication US20100129297A1, “USE OF AN AQUEOUS GRAPE SEED EXTRACT COMBINED WITH AT LEAST ONE FLUORINE SALT TO COMBAT THE FORMATION OR ACCUMULATION OF DENTAL BIOFILM AND COMPOSITIONS COMPRISING SAID COMBINATION” (priority 2007, published 2010)

Key:
Porphyromonas = experiment: Preventive action on an experimental buccal biofilm model, Porphyromonas count; type: cell-based, Porphyromonas gingivalis ATCC 33277; conditions: fluorinol compared with NaF, each combined with grape seed extract
Description: The bacterial strains used are: • Streptococcus mutans ATCC 25175 • Streptococcus sobrinus ATCC 33478 • Porphyromonas gingivalis ATCC 33277
These different bacteria, cultivated in their specific medium, are inoculated into 10 mL of universal culture medium FUM (Fluid Universal Medium, composition of the medium in Annex 1), and then incubated in anaerobiosis at 37° C. for 24 hours.
After checking the purity with a microscope, the series of cultures are independently adjusted to OD550 1.0±0.05 (i.e. about 10^7 cells per milliliter) by dilutions with FUM. […]
Serial dilutions to 1:10 of this cell suspension are carried out until concentrations of 10^−2 and 10^−4 are obtained, and then 50 μL of these dilutions are spread over the 4 specific geloses used: mitis salivarius agar, MRS, wilkins chalgren agar (WCA) and blood geloses. The geloses are then placed in anaerobiosis at 37° C. for 48-72 hours and the then the number of formed colonies for each species is counted. […]
The number of colonies formed after 48-72 hours of incubation of the molecules with bacterial biofilms is expressed, after counting, in Colony Forming Units per analyzed Biofilm (or CFU/Biofilm) by the formula:
[Number of counted colonies×dilution factor (10^2 to 10^4)]/Inoculum volume (0.05 mL) […]

[1] = test system: glucosyl transferases (GTF); experiment: Inhibition of glucosyl transferases (GTF): initial reaction rate, released fructose (DNS test); type: biochemical, Streptococcus sobrinus ATCC 33478
Description: A strain of Streptococcus sobrinus ATCC 33478 is placed in 1 liter of BHI (brain heart infusion) medium enriched in glucose (10 g/L final concentration) in anaerobiosis at 37° C. for 18 hours. This bacterial medium, the pH of which was brought back to 6.5 by means of a NaOH 1N solution, is then centrifuged for 30 minutes at 8,000 rpm at 4° C. The glucosyl transferase, present in the supernatant is concentrated by precipitation with ammonium sulfate. The latter (50% w/saturation v) is gradually added to the supernatant held at 4° C. under stirring for 30 minutes. The mixture is then centrifuged at 8,000 rpm, 4° for 30 minutes. […]
(§1) The results are expressed as inhibition percentages relatively to control solutions (ultra pure water): • the inhibition percentage of the initial rate of the enzymatic reaction (noted as “fructose” in the following table of results) on the one hand • the inhibition percentage of formation of insoluble glucan produced after 24 hours of incubation at 37° C. […]
Dextran interferes on the whole of the colorimetric methods for assaying proteins, because dextran particles diffract light and generate parasitic absorbance. The amount of glucosyl transferase is therefore measured by its activity under standard conditions. […]

[2] = test system: glucosyl transferases (GTF); experiment: Inhibition of glucosyl transferases (GTF): amount of synthesized insoluble glucan (weighing); type: biochemical, Streptococcus sobrinus ATCC 33478; conditions: 24 hours at 37° C.
Description: A strain of Streptococcus sobrinus ATCC 33478 is placed in 1 liter of BHI (brain heart infusion) medium enriched in glucose (10 g/L final concentration) in anaerobiosis at 37° C. for 18 hours. This bacterial medium, the pH of which was brought back to 6.5 by means of a NaOH 1N solution, is then centrifuged for 30 minutes at 8,000 rpm at 4° C. The glucosyl transferase, present in the supernatant is concentrated by precipitation with ammonium sulfate. The latter (50% w/saturation v) is gradually added to the supernatant held at 4° C. under stirring for 30 minutes. The mixture is then centrifuged at 8,000 rpm, 4° for 30 minutes. The pellet, rich in glucosyl transferase, is then taken up with phosphate/potassium K2HPO4 buffer (10 mM, pH 10.5), dialyzed (MWC 6-8000; width 14.6 mm) for 16 hours and then frozen at −20° C. This is the solution of purified GTF. […]
as §1
The amount of soluble glucan is measured 24 hours after the beginning of the enzymatic reaction. […]

## F.OCc1cccnc1 [fluorinol, 3-pyridyl methanol hydrofluoride]
Porphyromonas
  effect of potentialization of the grape seed extract on Porphyromonas: larger than that of NaF
[1]; fluorinol alone 0.68%
  inhibition percentage of the initial enzymatic reaction (fructose): 10.3%
[1]; fluorinol alone 1.02%
  inhibition percentage of the initial enzymatic reaction (fructose): 20.6%
[2]; fluorinol alone 0.68%
  synthesis of insoluble glucan: inefficient
[2]; fluorinol alone 1.02%
  synthesis of insoluble glucan: inefficient
